Laboratory results: patent US11718624B2, “Solid state forms of substituted pyrazolopyrimidines and uses thereof” (KSQ Therapeutics, Inc., priority 2020, dated 2023)
Like-named read-outs stand apart in the source and are kept apart here. Values belong to the compound of their own block, whether it stands above or below them.

Columns and labels:
[1] = Distribution in rat brain and plasma after single oral dose; assay type: in vivo, Sprague Dawley rats; conditions: single oral dose 100 mg/kg; for Kp / Cmax / Tmax / half-life / AUC(0-inf): Sprague Dawley, rat; for Kp: brain and plasma, read-out: B/P Conc. Ratio at tmax
Protocol: Male and female Sprague Dawley rats were purchased from Beijing Anikeeper Biotech Co, Ltd. Animals were habituated to the environment prior to study initiation. Rats were dosed with single dose of 100 mg/kg crystalline Form 2 via oral gavage. The rats were fasted overnight prior to dosing. Animals had access to food from 2 hours post dose and free access to water throughout the study. Approximately 0.2 mL of blood was sampled via jugular vein at each time point and centrifuged at 4000 G for 5 minutes at 4° C. to provide plasma. Samples were then stored in a freezer at −75±15° C. prior to LC-MS/MS analysis. Whole brain was collected after hemoperfusion and snap frozen on dry ice prior to storage at −75±15° C. Prior to LC-MS/MS analysis whole brains were weighed and homogenized with water by tissue weight (g) to water volume (ml) ratio 1:3 before analysis. Actual concentration is the measured value multiplied by the dilution factor. The PK data were described using descriptive statistics such as mean with standard deviation.

[2] = Mouse pharmacokinetic study, single oral dose, plasma; assay type: in vivo, NOD/SCID mice
Protocol: Mouse pharmacokinetic (PK) studies were conducted using Crystalline Form A of 6-(4-cyclopropyl-6-methoxypyrimidin-5-yl)-1-(4-(1-isopropyl-4-(trifluoromethyl)-1H-imidazol-2-yl)benzyl)-1H-pyrazolo[3,4-d]pyrimidine, as disclosed herein, Crystalline Form 2 of a gentisic acid co-crystal of 6-(4-cyclopropyl-6-methoxypyrimidin-5-yl)-1-(4-(1-isopropyl-4-(trifluoromethyl)-1H-imidazol-2-yl)benzyl)-1H-pyrazolo[3,4-d]pyrimidine, as disclosed herein, and Crystalline Form 8 of a benzoic acid co-crystal of 6-(4-cyclopropyl-6-methoxypyrimidin-5-yl)-1-(4-(1-isopropyl-4-(trifluoromethyl)-1H-imidazol-2-yl)benzyl)-1H-pyrazolo[3,4-d]pyrimidine, as disclosed herein.
The PK studies consisted of single dose oral exposure studies, which were conducted in female NOD/SCID mice (approximately 6 to 8 weeks, and 20-30 g at the time of study) using a compound dose of 300 mg/kg and a dosing volume of 10 mL/kg. The mice were fasted overnight prior to dosing. Animals had free access to food and water post-dosing.
(§1) Blood was sampled serially from the dorsal metatarsal vein at pre-dose, 0.25, 0.5, 1, 2, 4, 8, 24, 48 (crystalline Form 2 only), and 72 hours (crystalline Form 2 only) post PO dosing. Approximately 0.03 mL blood was collected at each time point and centrifuged at 4000 G for 5 minutes at 4° C. to provide plasma. The plasma samples were then stored in a freezer at −75±15° C. prior to LC-MS/MS analysis.
(§2) Concentrations of each compound in the plasma samples were then analyzed using an LC-MS/MS method. WinNonlin (Phoenix™, version 6.1) or other similar software was used for PK calculations. The following PK parameters were calculated, whenever possible from the plasma concentration versus time data: Cmax, Tmax, T1/2, AUCinf, and AUClast. The PK data were described using descriptive statistics such as mean with standard deviation.
Mouse pharmacokinetic (PK) studies were conducted using Crystalline Form 8 of 6-(4-cyclopropyl-6-methoxypyrimidin-5-yl)-1-(4-(1-isopropyl-4-(trifluoromethyl)-1H-imidazol-2-yl)benzyl)-1H-pyrazolo[3,4-d]pyrimidine, as disclosed herein.
as §1, with “8,” for “8, 24, 48 (crystalline Form 2 only),”, “24” for “72”, “hours” for “hours (crystalline Form 2 only)”
as §2, with “of” for “of each”

[3] = Distribution in mouse brain and plasma after repeated oral dosing; assay type: in vivo; conditions: female NOD SCID mice; for concentration at 4 h / Kp at 4 h: 4 h (Day 28); for concentration at 24 h / Kp at 24 h: 24 h (Day 28); for Kp at 4 h / Kp at 24 h: brain/plasma, read-out: B/P Ratio
Protocol: Female NOD SCID mice of an age between 6-8 weeks and a body weight range of 18-22 g were purchased from Beijing Anikeeper Biotech Co, Ltd. Animals were habituated to the environment for at least 7 days prior to study initiation. Mice were dosed with Crystalline Form 2 at either 100 mg/kg or 300 mg/kg dose levels via oral gavage for 28 days. After 24 hours following 27 doses of compound, three mice were euthanized via CO2. After four hours following 28 doses of compound, three mice were euthanized via CO2. At each time point the whole brain was collected. In addition, approximately 0.03 mL of blood was collected at each time point and centrifuged at 4000 G for 5 minutes at 4° C. to provide plasma. Samples were then stored in a freezer at −75±15° C. prior to LC-MS/MS analysis. Concentrations of compound in brain homogenates (ng/g) and plasma (ng/ml) were then analyzed using an LC-MS/MS method. The PK data were described using descriptive statistics such as mean with standard deviation.

[4] = Mean, female NOD/SCID mice, single PO dose 300 mg/kg, plasma, 300 mg/kg
[5] = Mouse 8, single PO dose 300 mg/kg, plasma, 300 mg/kg
[6] = Mouse 9, single PO dose 300 mg/kg, plasma, 300 mg/kg
[7] = brain, 100 mg/kg QD oral gavage, read-out: Brain Conc.
[8] = brain, 300 mg/kg QD oral gavage, read-out: Brain Conc.
[9] = plasma, 100 mg/kg QD oral gavage, read-out: Plasma Conc.
[10] = plasma, 300 mg/kg QD oral gavage, read-out: Plasma Conc.
[11] = female, NOD/SCID, mouse, plasma, po, 300 mg/kg, Mouse 11, single PO dose 300 mg/kg
[12] = female, NOD/SCID, mouse, plasma, po, 300 mg/kg, Mouse 12, single PO dose 300 mg/kg

- AUC0−∞ ([1]; Female SD rats, brain): 120933 ng·h/g
- AUC0−∞ ([1]; Male SD rats, brain): 60596 ng·h/g
- Kp ([1]; Female SD rats): 0.58
- Kp ([1]; Male SD rats): 0.731
- Cmax ([1]; Female SD rats, brain): 5610 ng/g
- Tmax ([1]; Female SD rats, brain): 8 h
- half-life ([1]; Female SD rats, brain): 12.8 h
- AUC(0-inf) ([1]; Female SD rats, plasma): 266 µg·h/mL
- Cmax ([1]; Female SD rats, plasma): 9760 ng/mL
- Tmax ([1]; Female SD rats, plasma): 8 h
- half-life ([1]; Female SD rats, plasma): 16.9 h
- Cmax ([1]; Male SD rats, brain): 3900 ng/g
- Tmax ([1]; Male SD rats, brain): 8 h
- half-life ([1]; Male SD rats, brain): 7.43 h
- AUC(0-inf) ([1]; Male SD rats, plasma): 102 µg·h/mL
- Cmax ([1]; Male SD rats, plasma): 5300 ng/mL
- Tmax ([1]; Male SD rats, plasma): 8 h
- half-life ([1]; Male SD rats, plasma): 9.13 h
- Cmax [2, 4]: 28900 ng/mL
- Tmax ([2]; Mouse 7, single PO dose 300 mg/kg, plasma): 8.00 h
- AUClast [2, 5]: 835.713 µg·h/mL
- Cmax [2, 5]: 28900 ng/mL
- Cmax [2, 6]: 29000 ng/mL
- Tmax [2, 6]: 12.0 h
- mouse oral exposure levels compared with crystalline Form A (freebase) ([2]; at about 300 mg/kg): higher exposure levels
- half-life ([2]; female, NOD/SCID, mouse, plasma, po, 300 mg/kg, Mouse 7, single PO dose 300 mg/kg): 4.03 h
- concentration at 4 h [3, 7]: 1520 ± 559 ng/g
- concentration at 24 h [3, 7]: 19.5 ng/g
- concentration at 4 h [3, 8]: 6500 ± 1050 ng/g
- concentration at 24 h [3, 8]: 66.1 ± 81.7 ng/g
- Kp at 4 h ([3]; 100 mg/kg QD oral gavage): 0.306 ± 0.125
- Kp at 24 h ([3]; 100 mg/kg QD oral gavage): 0.091 ± 0.014
- Kp at 4 h ([3]; 300 mg/kg QD oral gavage): 0.424 ± 0.018
- Kp at 24 h ([3]; 300 mg/kg QD oral gavage): 0.102 ± 0.007
- concentration at 4 h [3, 9]: 5040 ± 694 ng/mL
- concentration at 24 h [3, 9]: 178 ± 165 ng/mL
- concentration at 4 h [3, 10]: 15300 ± 2320 ng/mL
- concentration at 24 h [3, 10]: 667 ± 852 ng/mL
SMILES: COc1ncnc(C2CC2)c1-c1ncc2cnn(Cc3ccc(-c4nc(C(F)(F)F)cn4C(C)C)cc3)c2n1 [Crystalline Form 2, 6-(4-cyclopropyl-6-methoxypyrimidin-5-yl)-1-(4-(1-isopropyl-4-(trifluoromethyl)-1H-imidazol-2-yl)benzyl)-1H-pyrazolo[3,4-d]pyrimidine]

- Cmax [2, 4]: 14770 ng/mL
- T1/2 [2, 4]: 6.8 h
- Tmax [2, 4]: 3.50 h
- AUClast ([2]; Mean, female NOD/SCID mice, single PO dose 300 mg/kg, plasma, sampling to 24 h (to 72 h for Form 2), 300 mg/kg): 182.045 µg·h/mL
- AUC(0-t) ([2]; female, NOD/SCID, mouse, plasma, po, 300 mg/kg, Mouse 10, single PO dose 300 mg/kg): 145 µg·h/mL
- Cmax ([2]; female, NOD/SCID, mouse, plasma, po, 300 mg/kg, Mouse 10, single PO dose 300 mg/kg, plasma, read-out: Cmax): 8810 ng/mL
- Tmax ([2]; female, NOD/SCID, mouse, plasma, po, 300 mg/kg, Mouse 10, single PO dose 300 mg/kg, plasma, read-out: Tmax): 8 h
- AUC(0-t) [2, 11]: 168 µg·h/mL
- half-life [2, 11]: 11.4 h
- Cmax ([2]; female, NOD/SCID, mouse, plasma, po, 300 mg/kg, Mouse 11, single PO dose 300 mg/kg, plasma, read-out: Cmax): 18200 ng/mL
- Tmax ([2]; female, NOD/SCID, mouse, plasma, po, 300 mg/kg, Mouse 11, single PO dose 300 mg/kg, plasma, read-out: Tmax): 0.5 h
- AUC(0-t) [2, 12]: 233 µg·h/mL
- half-life [2, 12]: 2.08 h
- Cmax ([2]; female, NOD/SCID, mouse, plasma, po, 300 mg/kg, Mouse 12, single PO dose 300 mg/kg, plasma, read-out: Cmax): 17300 ng/mL
- Tmax ([2]; female, NOD/SCID, mouse, plasma, po, 300 mg/kg, Mouse 12, single PO dose 300 mg/kg, plasma, read-out: Tmax): 2 h
SMILES: COc1ncnc(C2CC2)c1-c1ncc2cnn(Cc3ccc(-c4nc(C(F)(F)F)cn4C(C)C)cc3)c2n1 [Crystalline Form 8, 6-(4-cyclopropyl-6-methoxypyrimidin-5-yl)-1-(4-(1-isopropyl-4-(trifluoromethyl)-1H-imidazol-2-yl)benzyl)-1H-pyrazolo[3,4-d]pyrimidine]

- Tmax [2, 6]: 4.00 h
- Tmax ([2]; female, NOD/SCID, mouse, plasma, po, 300 mg/kg, Mouse 7, single PO dose 300 mg/kg, plasma, read-out: Tmax): 8 h
- half-life ([2]; female, NOD/SCID, mouse, plasma, po, 300 mg/kg, Mouse 8, single PO dose 300 mg/kg): 6.79 h
SMILES: COc1ncnc(C2CC2)c1-c1ncc2cnn(Cc3ccc(-c4nc(C(F)(F)F)cn4C(C)C)cc3)c2n1 [Crystalline Form A, 6-(4-cyclopropyl-6-methoxypyrimidin-5-yl)-1-(4-(1-isopropyl-4-(trifluoromethyl)-1H-imidazol-2-yl)benzyl)-1H-pyrazolo[3,4-d]pyrimidine]
